Test results as given in US20230085307A1, “PYRIDAZINONE COMPOUND AND HERBICIDE” (NISSAN CHEMICAL CORPORATION, priority 2019, published 2023).

Columns and labels:
chickweed = test: Test Example 5: herbicidal effect by foliage application, plastic box (Table 20, symbol P); type: in vivo, common chickweed (Stellaria media); conditions: 320 g/ha; for herbicidal effect on P: chickweed (evaluation grade 0-5): foliage application after 14-day growth, evaluated three weeks after application
In short: (§1)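 Sow seeds spot-wise in sterilized diluvial soil; cover with ~1.5 cm soil. Grow 14 days in greenhouse, 25° C. to 30° C. Spray foliage with emulsion diluted to predetermined amount. Rate effect after 3 weeks.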

southern crabgrass [1] = test: Test Example 5: herbicidal effect by foliage application, plastic box (Table 20, symbol F); type: in vivo, southern crabgrass (Digitaria ciliaris); conditions: 320 g/ha; for herbicidal effect on F: southern crabgrass (evaluation grade 0-5): foliage application after 14-day growth, evaluated three weeks after application
In short: as §1

persian speedwell = test: Test Example 5: herbicidal effect by foliage application, plastic box (Table 20, symbol R); type: in vivo, Persian speedwell (Veronica persica); conditions: 320 g/ha; for herbicidal effect on R: persian speedwell (evaluation grade 0-5): foliage application after 14-day growth, evaluated three weeks after application
In short: as §1

late watergrass = test: Test Example 2: herbicidal activity, application during weed generation under submerged conditions (Table 17, symbol A); type: in vivo, late watergrass (Echinochloa oryzicola); conditions: AAH 320 g/ha; application during weed generation, submerged conditions
Method: [Test Example 2] Herbicidal Activity Test by Application during Weed Generation under Submerged Conditions After alluvial soil was placed into 1/10000 are of Wagner pot, water was poured and mixed to form a submerged condition having a water depth of 4 cm. Seeds of late watergrass, Japanese bulrush, and oval-leafed pondweed were sowed in a mixed manner in the aforementioned pot, and the pot was placed in a greenhouse at 25° C. to 30° C. for growth of the plants. When late watergrass, Japanese bulrush, and oval-leafed pondweed were grown to one leaf stage to two leaf stage, the emulsion agent of the compound of the present invention prepared according to Formulation Example 2 was diluted with water so as to achieve a predetermined herbicide amount, and the diluted emulsion agent was applied to the surface of the water. Three weeks after the herbicide application, the effect of the herbicide on each plant was evaluated according to the criteria of Test Example 1.

oval-leafed pondweed = test: Test Example 2: herbicidal activity, application during weed generation under submerged conditions (Table 17, symbol C); type: in vivo, oval-leafed pondweed (Monochoria vaginalis); conditions: AAH 320 g/ha; application during weed generation, submerged conditions
In short: (§2)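 Herbicide emulsion, diluted with water to the chosen amount, is applied onto 4 cm floodwater over alluvial soil where the weeds were co-sown and raised at 25–30° C. Application timing: 1–2 leaves. Assessment: three weeks afterwards.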

green foxtail [2] = test: Test Example 5: herbicidal effect by foliage application, plastic box (Table 20, symbol G); type: in vivo, green foxtail (Setaria viridis); conditions: 320 g/ha; for herbicidal effect on G: green foxtail (evaluation grade 0-5): foliage application after 14-day growth, evaluated three weeks after application
In short: as §1

wild oat = test: Test Example 5: herbicidal effect by foliage application, plastic box (Table 20, symbol I); type: in vivo, wild oat (Avena fatua); conditions: 320 g/ha; for herbicidal effect on I: wild oat (evaluation grade 0-5): foliage application after 14-day growth, evaluated three weeks after application
In short: as §1

redroot pigweed [3] = test: Test Example 5: herbicidal effect by foliage application, plastic box (Table 20, symbol N); type: in vivo, redroot pigweed (Amaranthus retroflexus); conditions: 320 g/ha; for herbicidal effect on N: redroot pigweed (evaluation grade 0-5): foliage application after 14-day growth, evaluated three weeks after application
In short: as §1

Chinese sprangletop = test: Test Example 3: herbicidal effect by foliage application, Wagner pot (Table 18, symbol D); type: in vivo, chinese sprangletop (Leptochloa chinensis); conditions: for herbicidal effect on Chinese sprangletop (D): 320 g/ha
In short: (§3)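 Plants were sown in alluvial soil held under 0.1–0.5 cm standing water and grown 14 days in a greenhouse at 25–30 °C. An emulsifiable formulation, water-diluted to the set dose, was then sprayed onto the foliage, and effects were scored three weeks later using previously defined criteria.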

barnyard grass [4] = test: Test Example 5: herbicidal effect by foliage application, plastic box (Table 20, symbol H); type: in vivo, barnyard grass (Echinochloa crus-galli); conditions: 320 g/ha; for herbicidal effect on H: barnyard grass (evaluation grade 0-5): foliage application after 14-day growth, evaluated three weeks after application
In short: as §1

windgrass = test: Test Example 5: herbicidal effect by foliage application, plastic box (Table 20, symbol L); type: in vivo, windgrass (Apera spica-venti); conditions: 320 g/ha; for herbicidal effect on L: windgrass (evaluation grade 0-5): foliage application after 14-day growth, evaluated three weeks after application
In short: as §1

Italian ryegrass = test: Test Example 5: herbicidal effect by foliage application, plastic box (Table 20, symbol K); type: in vivo, Italian ryegrass (Lolium multiflorum); conditions: 320 g/ha; for herbicidal effect on K: Italian ryegrass (evaluation grade 0-5): foliage application after 14-day growth, evaluated three weeks after application
In short: as §1

velvetleaf [5] = test: Test Example 5: herbicidal effect by foliage application, plastic box (Table 20, symbol M); type: in vivo, velvetleaf (Abutilon theophrasti); conditions: 320 g/ha; for herbicidal effect on M: velvetleaf (evaluation grade 0-5): foliage application after 14-day growth, evaluated three weeks after application
In short: as §1

barnyard grass [6] = test: Test Example 3: herbicidal effect by foliage application, Wagner pot (Table 18, symbol H); type: in vivo, barnyard grass (Echinochloa crus-galli); conditions: for herbicidal effect on barnyard grass (H): 320 g/ha
In short: as §3

Japanese bulrush = test: Test Example 2: herbicidal activity, application during weed generation under submerged conditions (Table 17, symbol B); type: in vivo, Japanese bulrush (Schoenoplectus juncoides); conditions: AAH 320 g/ha; application during weed generation, submerged conditions
In short: as §2

lambsquarters [7] = test: Test Example 5: herbicidal effect by foliage application, plastic box (Table 20, symbol O); type: in vivo, lambsquarters (Chenopodium album); conditions: 320 g/ha; for herbicidal effect on O: lambsquarters (evaluation grade 0-5): foliage application after 14-day growth, evaluated three weeks after application
In short: as §1

rice flat sedge = test: Test Example 3: herbicidal effect by foliage application, Wagner pot (Table 18, symbol E); type: in vivo, rice flat sedge (Cyperus iria); conditions: for herbicidal effect on rice flat sedge (E): 320 g/ha
In short: as §3

blackgrass = test: Test Example 5: herbicidal effect by foliage application, plastic box (Table 20, symbol J); type: in vivo, blackgrass (Alopecurus myosuroides); conditions: 320 g/ha; for herbicidal effect on J: blackgrass (evaluation grade 0-5): foliage application after 14-day growth, evaluated three weeks after application
In short: as §1

southern crabgrass [8] = test: Test Example 4: herbicidal effect by soil treatment (Table 19, symbol F); type: in vivo, southern crabgrass (Digitaria ciliaris); conditions: amount of applied herbicide 320 g/ha
In short: (§4)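 Applied as a water-diluted emulsion, the compound was sprayed onto soil covering newly sown seeds. Evaluation came three weeks after application, in a greenhouse held at 25° C. to 30° C.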

green foxtail [9] = test: Test Example 4: herbicidal effect by soil treatment (Table 19, symbol G); type: in vivo, green foxtail (Setaria viridis); conditions: amount of applied herbicide 320 g/ha
In short: as §4

lambsquarters [10] = test: Test Example 4: herbicidal effect by soil treatment (Table 19, symbol O); type: in vivo, lambsquarters (Chenopodium album); conditions: amount of applied herbicide 320 g/ha
In short: as §4

barnyard grass [11] = test: Test Example 4: herbicidal effect by soil treatment (Table 19, symbol H); type: in vivo, barnyard grass (Echinochloa crus-galli); conditions: amount of applied herbicide 320 g/ha
In short: as §4

redroot pigweed [12] = test: Test Example 4: herbicidal effect by soil treatment (Table 19, symbol N); type: in vivo, redroot pigweed (Amaranthus retroflexus); conditions: amount of applied herbicide 320 g/ha
In short: as §4

velvetleaf [13] = test: Test Example 4: herbicidal effect by soil treatment (Table 19, symbol M); type: in vivo, velvetleaf (Abutilon theophrasti); conditions: amount of applied herbicide 320 g/ha
In short: as §4

[14] = foliage application, three weeks after application
[15] = amount of applied herbicide 320 g/ha

Structure (SMILES)	herbicidal effect on P: chickweed (evaluation grade 0-5) (chickweed)	herbicidal effect on F: southern crabgrass (evaluation grade 0-5) (southern crabgrass [1])	herbicidal effect on R: persian speedwell (evaluation grade 0-5) (persian speedwell)	herbicidal effect rating, A: late watergrass (late watergrass)	herbicidal effect rating, C: oval-leafed pondweed (oval-leafed pondweed)	herbicidal effect on G: green foxtail (evaluation grade 0-5) (green foxtail [2])	herbicidal effect on I: wild oat (evaluation grade 0-5) (wild oat)	herbicidal effect on N: redroot pigweed (evaluation grade 0-5) (redroot pigweed [3])	herbicidal effect on Chinese sprangletop (D) (Chinese sprangletop)	herbicidal effect on H: barnyard grass (evaluation grade 0-5) (barnyard grass [4])	herbicidal effect on L: windgrass (evaluation grade 0-5) (windgrass)	herbicidal effect on K: Italian ryegrass (evaluation grade 0-5) (Italian ryegrass)	herbicidal effect on M: velvetleaf (evaluation grade 0-5) (velvetleaf [5])	herbicidal effect on barnyard grass (H) (barnyard grass [6])	herbicidal effect rating, B: Japanese bulrush (Japanese bulrush)	herbicidal effect on O: lambsquarters (evaluation grade 0-5) (lambsquarters [7])	herbicidal effect on rice flat sedge (E) (rice flat sedge)	herbicidal effect on J: blackgrass (evaluation grade 0-5) (blackgrass)	also measured
CCCC(=O)Oc1c(C)nn(C)c(=O)c1-c1c(-c2ccc(Cl)cc2)sc2c(Cl)cccc12 [4-018]	5 (Herbicidal rate of 90% or more (almost completely withered))	0 (Herbicidal rate of 5% or less (almost no effect))	4 (Herbicidal rate of 70% or more and less than 90%)	0 (Herbicidal rate of 5% or less (almost no effect))	3 (Herbicidal rate of 40% or more and less than 70%)	0 (Herbicidal rate of 5% or less (almost no effect))	3 (Herbicidal rate of 40% or more and less than 70%)	3 (Herbicidal rate of 40% or more and less than 70%)	4 (Herbicidal rate of 70% or more and less than 90%)	0 (Herbicidal rate of 5% or less (almost no effect))	5 (Herbicidal rate of 90% or more (almost completely withered))	3 (Herbicidal rate of 40% or more and less than 70%)	4 (Herbicidal rate of 70% or more and less than 90%)	4 (Herbicidal rate of 70% or more and less than 90%)	3 (Herbicidal rate of 40% or more and less than 70%)	0 (Herbicidal rate of 5% or less (almost no effect))	3 (Herbicidal rate of 40% or more and less than 70%)	4 (Herbicidal rate of 70% or more and less than 90%)	
CCCC(=O)Oc1c(C)nn(C)c(=O)c1-c1c(-c2ccc(Cl)cc2)sc2cc(F)ccc12 [3-016]				3 (Herbicidal rate of 40% or more and less than 70%)	0 (Herbicidal rate of 5% or less (almost no effect))										0 (Herbicidal rate of 5% or less (almost no effect))				P: chickweed, herbicidal effect grade (chickweed; [14]): 3 (Herbicidal rate of 40% or more and less than 70%); F: southern crabgrass, herbicidal effect grade (southern crabgrass [1]; [14]): 0 (Herbicidal rate of 5% or less (almost no effect)); R: persian speedwell, herbicidal effect grade (persian speedwell; [14]): 4 (Herbicidal rate of 70% or more and less than 90%); G: green foxtail, herbicidal effect grade (green foxtail [2]; [14]): 0 (Herbicidal rate of 5% or less (almost no effect)); I: wild oat, herbicidal effect grade (wild oat; [14]): 1 (Herbicidal rate of 5% or more and less than 20%); N: redroot pigweed, herbicidal effect grade (redroot pigweed [3]; [14]): 1 (Herbicidal rate of 5% or more and less than 20%); herbicidal effect on D: Chinese sprangletop (Chinese sprangletop; [15]): 4 (Herbicidal rate of 70% or more and less than 90%); H: barnyard grass, herbicidal effect grade (barnyard grass [4]; [14]): 0 (Herbicidal rate of 5% or less (almost no effect)); L: windgrass, herbicidal effect grade (windgrass; [14]): 5 (Herbicidal rate of 90% or more (almost completely withered)); K: Italian ryegrass, herbicidal effect grade (Italian ryegrass; [14]): 0 (Herbicidal rate of 5% or less (almost no effect)); M: velvetleaf, herbicidal effect grade (velvetleaf [5]; [14]): 3 (Herbicidal rate of 40% or more and less than 70%); herbicidal effect on H: barnyard grass (barnyard grass [6]; [15]): 3 (Herbicidal rate of 40% or more and less than 70%); O: lambsquarters, herbicidal effect grade (lambsquarters [7]; [14]): 3 (Herbicidal rate of 40% or more and less than 70%); herbicidal effect on E: rice flat sedge (rice flat sedge; [15]): 4 (Herbicidal rate of 70% or more and less than 90%); J: blackgrass, herbicidal effect grade (blackgrass; [14]): 0 (Herbicidal rate of 5% or less (almost no effect))
COc1ccc2c(-c3c(O)c(C)nn(C)c3=O)c(-c3ccc(OC(F)(F)F)cc3)sc2c1 [3-170]		0 (Herbicidal rate of 5% or less (almost no effect))		2 (Herbicidal rate of 20% or more and less than 40%)	0 (Herbicidal rate of 5% or less (almost no effect))	0 (Herbicidal rate of 5% or less (almost no effect))		4 (Herbicidal rate of 70% or more and less than 90%)	0 (Herbicidal rate of 5% or less (almost no effect))	0 (Herbicidal rate of 5% or less (almost no effect))			3 (Herbicidal rate of 40% or more and less than 70%)	3 (Herbicidal rate of 40% or more and less than 70%)	0 (Herbicidal rate of 5% or less (almost no effect))	5 (Herbicidal rate of 90% or more (almost completely withered))	0 (Herbicidal rate of 5% or less (almost no effect))		Herbicidal effect by soil treatment, F: southern crabgrass (southern crabgrass [8]): 0 (Herbicidal rate of 5% or less (almost no effect)); Herbicidal effect by soil treatment, G: green foxtail (green foxtail [9]): 0 (Herbicidal rate of 5% or less (almost no effect)); Herbicidal effect by soil treatment, O: lambsquarters (lambsquarters [10]): 1 (Herbicidal rate of 5% or more and less than 20%); Herbicidal effect by soil treatment, H: barnyard grass (barnyard grass [11]): 0 (Herbicidal rate of 5% or less (almost no effect)); Herbicidal effect by soil treatment, N: redroot pigweed (redroot pigweed [12]): 4 (Herbicidal rate of 70% or more and less than 90%); Herbicidal effect by soil treatment, M: velvetleaf (velvetleaf [13]): 0 (Herbicidal rate of 5% or less (almost no effect))
CCCC(=O)Oc1c(C)nn(C)c(=O)c1-c1c(-c2ccc(C(F)(F)F)cc2F)sc2c(Cl)cccc12 [4-038]	4 (Herbicidal rate of 70% or more and less than 90%)	0 (Herbicidal rate of 5% or less (almost no effect))	4 (Herbicidal rate of 70% or more and less than 90%)	2 (Herbicidal rate of 20% or more and less than 40%)	0 (Herbicidal rate of 5% or less (almost no effect))	0 (Herbicidal rate of 5% or less (almost no effect))	2 (Herbicidal rate of 20% or more and less than 40%)	0 (Herbicidal rate of 5% or less (almost no effect))	5 (Herbicidal rate of 90% or more (almost completely withered))	0 (Herbicidal rate of 5% or less (almost no effect))	5 (Herbicidal rate of 90% or more (almost completely withered))	4 (Herbicidal rate of 70% or more and less than 90%)	0 (Herbicidal rate of 5% or less (almost no effect))	4 (Herbicidal rate of 70% or more and less than 90%)	3 (Herbicidal rate of 40% or more and less than 70%)	0 (Herbicidal rate of 5% or less (almost no effect))	4 (Herbicidal rate of 70% or more and less than 90%)	0 (Herbicidal rate of 5% or less (almost no effect))	
